Data: US4081441A, “Antibacterial agents” (priority 1977, dated 1978)
Converted amounts (≈) assume the structure as drawn. Read-outs that look alike come from different tables or passages of the source.

Columns and labels:
[1] = system: Pseudomonas aeruginosa; experiment: Minimum Bactericidal Concentration, inoculum 10^5 cells/ml., at least 99.9% kill; type: cell-based
Description: The effect of increased inoculum size on the bactericidal activity of BL-P1908 was investigated by a second test in which an inoculum size of 10^5 cells/ml. was used and the M.B.C. was defined as the lowest concentration of antibiotics in mcg./ml. needed to kill at least 99.9% of viable Pseudomonas cells.

[2] = system: Cl. cylindrosporum; experiment: M.I.C. against anaerobic bacteria, Cl. cylindrosporum; type: cell-based; conditions: strain A9562
[3] = system: Cl. difficile; experiment: M.I.C. against anaerobic bacteria, Cl. difficile; type: cell-based; conditions: Clostridioides difficile
[4] = system: Pseudomonas aeruginosa; experiment: Minimum Bactericidal Concentration, inoculum 10^4 cells/ml., at least 99% kill; type: cell-based
Description: The bactericidal in vitro activity of sodium D(-)-6-(α-(1,2,4-triazine-3,5-dione-6-carboxamido)-4-hydroxyphenylacetamido)penicillanate (BL-P1908) against several strains of Pseudomonas aeruginosa was determined under two sets of conditions. In one test the Minimum Bactericidal Concentrations (M.B.C.) were determined using an inoculum size of 10^4 cells/ml. and the M.B.C. was defined as the lowest concentration of antibiotic in mcg./ml. needed to kill at least 99% of the viable Pseudomonas cells.

[5] = system: Cl. perfringens; experiment: microbe, parasite or virus in culture; type: cell-based; conditions: Clostridium perfringens
[6] = system: Bacteroides fragilis; experiment: M.I.C. against anaerobic bacteria, Bacteroides fragilis; type: cell-based
[7] = system: Cl. ramosum; experiment: M.I.C. against anaerobic bacteria, Cl. ramosum; type: cell-based; conditions: Thomasclavelia ramosa
[8] = Mouse blood (plasma) antibiotic levels after single intramuscular dose; type: in vivo; conditions: im, 40 mg/kg, mice, 40 mg./kg. i.m., Test 1 (Ave. of 6 mice tested), read-out: Blood Level
Description: Plasma antibiotic levels from mice administered a single intramuscular dose of 40 mg./kg. of BL-[…] or carbenicillin are shown in the following table.

[9] = system: Cl. septicum; experiment: M.I.C. against anaerobic bacteria, Cl. septicum; type: cell-based; conditions: Clostridium septicum; strain A21869
[10] = system: Cl. acidiurici; experiment: M.I.C. against anaerobic bacteria, Cl. acidiurici; type: cell-based; conditions: strain A9560
[11] = system: Pseudomonas aeruginosa; experiment: animal or person; conditions: in Mus musculus, im
[12] = system: Pseudomonas aeruginosa; experiment: Minimum Inhibitory Concentration, agar dilution, overnight incubation at 37° C.; type: cell-based; conditions: for MIC: Pseudomonas aeruginosa
Description: A carbenicillin sample was also run for comparative purposes.

CC1(C)S[C@@H]2[C@H](NC(=O)C(C(=O)O)c3ccccc3)C(=O)N2[C@H]1C(=O)O (stereo partly shown) [Carbenicillin, reference compound]
MBC ([1]; strain 9843A): 125 µg/mL (≈ 330 µM) | MBC ([1]; strain 9910): 125 µg/mL (≈ 330 µM) | MBC ([1]; strain 9926): 125 µg/mL (≈ 330 µM) | MBC ([1]; strain 20126): 63 µg/mL (≈ 166 µM) | MBC ([1]; strain 20128): 125 µg/mL (≈ 330 µM) | MBC ([1]; strain 20227): 125 µg/mL (≈ 330 µM) | MBC ([1]; strain 20228): 63 µg/mL (≈ 166 µM) | MBC ([1]; strain 20546): 250 µg/mL (≈ 661 µM) | MBC ([1]; strain 20557): 250 µg/mL (≈ 661 µM) | MBC ([1]; strain 20574): 125 µg/mL (≈ 330 µM) | MBC ([1]; strain 20602): 250 µg/mL (≈ 661 µM) | MBC ([1]; strain 20616): 250 µg/mL (≈ 661 µM) | MBC ([1]; strain 20641): 125 µg/mL (≈ 330 µM) | MBC ([1]; strain 20717): 1000 µg/mL (≈ 2640 µM) | MBC ([1]; strain 20726): 250 µg/mL (≈ 661 µM) | MBC ([1]; strain 21336): 125 µg/mL (≈ 330 µM) | MIC [2]: 0.5 µg/mL (≈ 1.32 µM) | MIC ([3]; strain A21675): 32 µg/mL (≈ 84.6 µM) | MIC ([3]; strain A21972): 32 µg/mL (≈ 84.6 µM) | MBC ([4]; strain 9843A): 63 µg/mL (≈ 166 µM) | MBC ([4]; strain 9910): 32 µg/mL (≈ 84.6 µM) | MBC ([4]; strain 9926): 63 µg/mL (≈ 166 µM) | MBC ([4]; strain 20126): 63 µg/mL (≈ 166 µM) | MBC ([4]; strain 20128): 63 µg/mL (≈ 166 µM) | MBC ([4]; strain 20227): 63 µg/mL (≈ 166 µM) | MBC ([4]; strain 20228): 63 µg/mL (≈ 166 µM) | MBC ([4]; strain 20546): 63 µg/mL (≈ 166 µM) | MBC ([4]; strain 20557): 250 µg/mL (≈ 661 µM) | MBC ([4]; strain 20574): 63 µg/mL (≈ 166 µM) | MBC ([4]; strain 20616): 125 µg/mL (≈ 330 µM) | MBC ([4]; strain 20641): 125 µg/mL (≈ 330 µM) | MBC ([4]; strain 20717): 250 µg/mL (≈ 661 µM) | MBC ([4]; strain 20726): 125 µg/mL (≈ 330 µM) | MBC ([4]; strain 21336): 63 µg/mL (≈ 166 µM) | MIC ([5]; strain A21873): 0.5 µg/mL (≈ 1.32 µM) | MIC ([5]; strain A21874): 0.5 µg/mL (≈ 1.32 µM) | MIC ([5]; strain A21907): 4 µg/mL (≈ 10.6 µM) | MIC ([6]; strain A20920): 2 µg/mL (≈ 5.29 µM) | MIC ([6]; strain A20926): 16 µg/mL (≈ 42.3 µM) | MIC ([6]; strain A20927-1): 2 µg/mL (≈ 5.29 µM) | MIC ([6]; strain A20930): 63 µg/mL (≈ 166 µM) | MIC ([6]; strain A20933): 32 µg/mL (≈ 84.6 µM) | MIC ([6]; strain A20934): 32 µg/mL (≈ 84.6 µM) | MIC ([6]; strain A20935): 32 µg/mL (≈ 84.6 µM) | MIC ([6]; strain A21870): 4 µg/mL (≈ 10.6 µM) | MIC ([6]; strain A21871): 32 µg/mL (≈ 84.6 µM) | MIC ([6]; strain A21872): 63 µg/mL (≈ 166 µM) | MIC ([6]; strain A21875): 16 µg/mL (≈ 42.3 µM) | MIC ([6]; strain A22053): 63 µg/mL (≈ 166 µM) | MIC ([6]; strain A27020): > 125 µg/mL | MIC ([7]; strain A21883): 32 µg/mL (≈ 84.6 µM) | MIC ([7]; strain A21970): 32 µg/mL (≈ 84.6 µM) | concentration at 0.25 h ([8]; 15 min.): 19100 ng/mL | concentration at 0.5 h ([8]; 30 min.): 12500 ng/mL | concentration at 1 h ([8]; 60 min.): 4000 ng/mL | concentration at 1.5 h ([8]; 90 min.): < 1400 ng/mL | MIC [9]: 1 µg/mL (≈ 2.64 µM) | MIC [10]: 0.5 µg/mL (≈ 1.32 µM) | ED50 ([11]; read-out: PD50 /treatment, P. aeruginosa A9843A, challenge 1 × 10^4, i.m., typical figures based on several tests): 100 mg/kg | ED50 ([11]; read-out: PD50 /treatment, P. aeruginosa A9843A, challenge 2 × 10^4, i.m., typical figures based on several tests): 100 mg/kg | ED50 ([11]; read-out: PD50 /treatment, P. aeruginosa A9843A, challenge 3 × 10^4, i.m., at 0 and 2 hours): 130 mg/kg | ED50 ([11]; read-out: PD50 /treatment, P. aeruginosa A20599, challenge 3 × 10^4, i.m., at 0 and 2 hours): 100 mg/kg | ED50 ([11]; read-out: PD50 /treatment, P. aeruginosa A20599, challenge 6 × 10^4, i.m., at 0 and 2 hours): 130 mg/kg | M.I.C. [12]: 32 µg/mL | MIC ([12]; strain A9502): 63 µg/mL (≈ 166 µM) | MIC ([12]; strain A9827): 32 µg/mL (≈ 84.6 µM) | MIC ([12]; strain A9910): 32 µg/mL (≈ 84.6 µM) | MIC ([12]; strain A9923): 63 µg/mL (≈ 166 µM) | MIC ([12]; strain A9924): 63 µg/mL (≈ 166 µM) | MIC ([12]; strain A9925): 32 µg/mL (≈ 84.6 µM) | MIC ([12]; strain A9926): 63 µg/mL (≈ 166 µM) | MIC ([12]; strain A9930): 63 µg/mL (≈ 166 µM) | MIC ([12]; strain A9931): 63 µg/mL (≈ 166 µM) | MIC ([12]; strain A15150): 32 µg/mL (≈ 84.6 µM) | MIC ([12]; strain A15151): 32 µg/mL (≈ 84.6 µM) | MIC ([12]; strain A15194): > 125 µg/mL | MIC ([12]; strain A15195): 63 µg/mL (≈ 166 µM) | MIC ([12]; strain A15196): 63 µg/mL (≈ 166 µM) | MIC ([12]; strain A20125): 63 µg/mL (≈ 166 µM) | MIC ([12]; strain A20126): 16 µg/mL (≈ 42.3 µM) | MIC ([12]; strain A20127): 63 µg/mL (≈ 166 µM) | MIC ([12]; strain A20128): 63 µg/mL (≈ 166 µM) | MIC ([12]; strain A20129): 63 µg/mL (≈ 166 µM) | MIC ([12]; strain A20130): 63 µg/mL (≈ 166 µM) | MIC ([12]; strain A20228): 63 µg/mL (≈ 166 µM) | MIC ([12]; strain A20546): 63 µg/mL (≈ 166 µM) | MIC ([12]; strain A20557): > 125 µg/mL | MIC ([12]; strain A20574): 32 µg/mL (≈ 84.6 µM) | MIC ([12]; strain A20602): 63 µg/mL (≈ 166 µM) | MIC ([12]; strain A20616): 63 µg/mL (≈ 166 µM) | MIC ([12]; strain A20641): 63 µg/mL (≈ 166 µM) | MIC ([12]; strain A20717): > 125 µg/mL | MIC ([12]; strain A20726): 63 µg/mL (≈ 166 µM) | MIC ([12]; strain A21336): 63 µg/mL (≈ 166 µM)
